Measured values as given in patent US5766875A, “Metabolic monitoring of cells in a microplate reader” (priority 1995, dated 1998).
Read-outs that look alike come from different tables or passages of the source.

Key:
TF-1 cells [1] = test: Effect of cell-affecting agents on activation of TF-1 cells by GM-CSF, extracellular acidification rate (Example 9); assay type: cell-based; conditions: for inhibition at 10 µM: Homo sapiens
Procedure: The cell effects of beta-Maleimido proprionic acid (NMPA), N-Ethyl maleimide (NEM), Ferricyanide (Fe3 CN)^-3 (i.e. FeCN) and Cupric o-phenanthroline (Cu o-Ph) on the activation of TF-1 cells by GM-CSF was measured by a procedure similar to that used in Example 5. TF-1 cells were starved overnight in media lacking GM-CSF. The cells were washed twice and re-suspended in simple indicator medium at 1×10^6 cells/ml. The simple indicator medium contained one of the following test substances: NMPA, MEM, FeCN or Cu o-Ph at the tested concentration. A control test, which had no cell-affecting agent, was run in parallel. The cells in the simple indicator medium with or without cell-affecting agents were warmed to 37° C. for 20 minutes prior to the addition of recombinant human GM-CSF (obtained from Sandoz/Schering-Plough Corp.) to a final concentration of 0.1 ng/ml, and the extracellular acidification rate was measured by monitoring OD560/OD420 at 37° C. for 45 minutes. Additionally, a set of cells were mock treated with an equal volume of simple indicator medium but without any GM-CSF as a control for GM-CSF activation. The acidification rates were calculated from the slope of log(OD560/OD420) from 20 to 40 minutes after addition of the GM-CSF.
Generally, 0.1 ng/ml of GM-CSF caused a 100-150% increase in extracellular acidification rate. The cell-affecting agents inhibited the response of extracellular acidification to GM-CSF. Thus, these cell-affecting agents are inhibitory cell-affecting agents, while GM-CSF is a stimulatory cell-affecting agent. The measurements were made in duplicate and results are shown below as % inhibition of the response to GM-CSF, relative to control cells which received GM-CSF only.

mammalian cells = conditions: cited from earlier work
[2] = Apparent pH change with temperature of buffering systems as indicated by phenol red; assay type: physicochemical; conditions: phenol red pH indicator, 50 mM total buffer
TF-1 cells [3] = test: Extracellular acidification by TF-1 cells in response to GM-CSF (Example 5); assay type: cell-based
Procedure: The results from using a preferred simple media (shown in Table 2) to monitor extracellular acidification by TF-I cells is shown in FIG. 13. The TF-1 cells and are grown in complete RPMI 1640 medium with 2.0 mM L-glutamine (Catalogue No. 430-1800, GIBCO-BRL, Grand Island, N.Y.) with added […], 50 μM β-mercaptoethanol, 1000 units/liter penicillin and 1.0 mg/liter streptomycin, 10% fetal bovine serum and Ing/ml GM-CSF (human Granulocyte/Macrophage--Colony Stimulating Factor) under 5% CO2 at 37° C.
The cells are maintained at between 5×10^5 cells per ml and 5×10^6 cells per ml. […]
The extracellular acidification measurements were done in a flat-bottom, 96-well polystyrene microplate placed in a THERMOmax™ microplate reader, set to 37° C. […] Extracellular acidification was measured with Automix™ on, and with SOFTMAX® software (Molecular Devices Corporation, Menlo Park, Calif.) and an Apple® Macintosh™ computer were used to kinetically monitor the optical density changes. The ratio of optical density at 560 nanometers/optical density at 420 nanometers, as a function of time, was measured by using the ODλ1 -ODλ2 feature of a THERMOmax™ microplate reader modified to measure ODλ1 /ODλ2 instead of ODλ1 -ODλ2 (as described previously). The log10 of the ratio of optical densities at 560 nanometers/optical density at 420 nanometers was calculated and plotted as a function of time. […]

TF-1 cells [4] = conditions: TF-1 cells in culture; earlier work; cited from earlier work

CCN1C(=O)C=CC1=O [NEM, N-Ethyl maleimide]
inhibition at 10 µM (TF-1 cells [1]; TF-1, read-out: % Inhibition GM-CSF Response): 98%

O=C(O)CCN1C(=O)C=CC1=O [NMPA, beta-Maleimido proprionic acid]
inhibitory effects on GM-CSF activation (in words) (TF-1 cells [1]; 0.1 ng/ml GM-CSF, extracellular acidification): weak in comparison to NEM and Cu o-Ph
inhibition at 10 µM (TF-1 cells [1]; TF-1, 10 μM, 0.1 ng/ml GM-CSF, duplicate, read-out: % Inhibition GM-CSF Response): 3%

O=S1(=O)OC(c2ccc(O)cc2)(c2ccc(O)cc2)c2ccccc21 [Phenol Red, phenolsulfonephthalein]
toxicity toward most mammalian cells (mammalian cells): minimal toxicity

NC(CO)(CO)CO [TRIS, tris[Hydroxymethyl]aminomethane]
apparent change in pH with change in temperature ([2]; equilibrium with CO2 in air): -14.93 millipH/°C.
apparent change in pH with change in temperature ([2]; with 1.0M NaCl added): -13.36 millipH/°C.

Cupric o-phenanthroline [Cu o-Ph]
% Inhibition GM-CSF Response (TF-1 cells [1]; 25 μM, 0.1 ng/ml GM-CSF, duplicate): 43%

GM-CSF: human Granulocyte/Macrophage--Colony Stimulating Factor
saturating levels (no observance of a dose response) (TF-1 cells [3]): greater than 0.05 ng/ml
increase in extracellular acidification rate (TF-1 cells [1]; 0.1 ng/ml GM-CSF, 37° C.): 100-150%
concentration giving the optimum proliferation rate (TF-1 cells [4]): approximately 1 ng/ml
